Earlier results, collected in patent US8771712B2, “Topical administration of acyclovir” (Emisphere Technologies, Inc., priority 2006, dated 2014).

Conditions: humans, microdialysis

For Nc1nc2c(ncn2COCCO)c(=O)[nH]1 [acyclovir, 9-(2-hydroxyethoxymethyl) guanine], which “Acyclovir concentration (dermis)” value (after removal of the stratum corneum and infusion of 0.0005% noradrenaline) is on record?
Its value is 3.9 µg/mL.

What about the “Acyclovir in the dermis” value (application to intact skin) of the same compound?
Its value is “no acyclovir was detected”.
